According to patent US8426174B2, “Method for the production of 2-butanol” (Butamax(TM) Advanced Biofuels LLC, priority 2007, dated 2013):

Tests used:
[1] = test system: Klebsiella pneumoniae glycerol dehydratase; experiment: Glycerol dehydratase butanediol dehydratase activity, crude cell free extract; assay type: biochemical; settings: 10 mM meso-2,3-butanediol, 12 μM coenzyme B12, pH 8.2, 37° C.
From the text: Glycerol dehydratase (E.C. 4.2.1.30) and diol dehydratase (E.C. 4.2.1.28), while structurally related, are often distinguished in the art based on various differences that include substrate specificity. […] The recombinant E. coli strain KLP23/pSYCO12, comprising Klebsiella pneumoniae genes encoding the multiple subunits of glycerol dehydratase (alpha: SEQ ID NO:145 (coding region) and 146 (protein); beta: SEQ ID NO: 147 (coding region) and 148 (protein); and gamma: SEQ ID NO: 149 (coding region) and 150 (protein)) and Klebsiella pneumoniae genes encoding the multiple subunits of glycerol dehydratase reactivase (large subunit, SEQ ID NO: 151 (coding region) and 152 (protein); and small subunit, SEQ ID NO: 153 (coding region) and 154 (protein)), is described in Emptage et al. U.S. Pat. No. 6,514,733 and in WO 2003089621, which are herein incorporated by reference. A crude, cell free extract of KLP23/pSYCO12 was prepared by methods known to one skilled in the art. […] The formation of 2-butanone was monitored by HPLC (Shodex SH-1011 column and SH-G guard column with refractive index detection; 0.01 M H2SO4 as the mobile phase at a flow rate of 0.5 mL/min and a column temperature of 50° C.; 2-butanone retention time=40.2 min). The rate of 2-butanone formation by the glycerol dehydratase preparation was determined to be 0.4 nmol/min/mg of crude protein.

[2] = test system: Lactobacillus plantarum PN0512; experiment: Growth of L. plantarum PN0512 in the presence of butanols at different temperatures; assay type: cell-based; set-up: key to Growth at 37° C. / Growth at 30° C. / Growth at 25° C.: +: growth observed as an increase in OD600.; −: no growth observed, i.e. no change in OD600
Description: Tolerance levels of bacterial strain Lactobacillus plantarum PN0512 (ATCC # PTA-7727) were determined at 25° C., 30° C. and 37° C. as follows. The strain was cultured in S30L medium (i.e., 10 mM ammonium sulfate, 5 mM potassium phosphate buffer, pH 7.0, 50 mM MOPS, pH 7.0, 2 mM MgCl2, 0.7 mM CaCl2, 50 μM MnCl2, 1 μM FeCl3, 1 μM ZnCl2, 1.72 μM CuCl2, 2.53 μM CoCl2, 2.42 μM Na2MoO4, 2 μM thiamine hydrochloride, 10 mM glucose, and 0.2% yeast extract). An overnight culture in the absence of any test compound was started in 15 mL of the S30L medium in a 150 mL flask, with incubation at 37° C. in a shaking water bath. The next morning, the overnight culture was diluted into three 500 mL flasks containing 150 mL of fresh medium to an initial OD600 of about 0.08. Each flask was incubated in a shaking water bath, one each at 25° C., 30° C. and 37° C. Each large culture was allowed to acclimate at the test temperature for at least 0.5 h. […] Growth was followed by measuring OD600 for six hours after addition of the compounds.

CC(O)C(C)O (stereo not drawn) [meso-2,3-butanediol]
rate of 2-butanone formation [1]: 0.4 nmol/min/mg of crude protein

CCC(C)O (stereo not drawn) [2-butanol]
Growth at 37° C. ([2]; 1.8 % w/v 2-butanol): + | Growth at 37° C. ([2]; 2.1 % w/v 2-butanol): + | Growth at 25° C. ([2]; 2.9 % w/v 2-butanol): + | Growth at 30° C. ([2]; 2.9 % w/v 2-butanol): + | Growth at 37° C. ([2]; 2.9 % w/v 2-butanol): + | Growth at 37° C. ([2]; 3.1 % w/v 2-butanol): + | Growth at 37° C. ([2]; 3.6 % w/v 2-butanol): + | Growth at 25° C. ([2]; 3.8 % w/v 2-butanol): + | Growth at 30° C. ([2]; 3.8 % w/v 2-butanol): + | Growth at 37° C. ([2]; 3.8 % w/v 2-butanol): + | Growth at 30° C. ([2]; 4.0 % w/v 2-butanol): + | Growth at 25° C. ([2]; 4.3 % w/v 2-butanol): + | Growth at 30° C. ([2]; 4.3 % w/v 2-butanol): + | Growth at 37° C. ([2]; 4.3 % w/v 2-butanol): + | Growth at 25° C. ([2]; 4.7 % w/v 2-butanol): + | Growth at 30° C. ([2]; 4.7 % w/v 2-butanol): + | Growth at 37° C. ([2]; 4.7 % w/v 2-butanol): − | Growth at 25° C. ([2]; 4.9 % w/v 2-butanol): + | Growth at 30° C. ([2]; 4.9 % w/v 2-butanol): − | Growth at 25° C. ([2]; 5.2 % w/v 2-butanol): + | Growth at 37° C. ([2]; 5.2 % w/v 2-butanol): − | Growth at 25° C. ([2]; 5.6 % w/v 2-butanol): − | Growth at 37° C. ([2]; 5.6 % w/v 2-butanol): − | Growth at 37° C. ([2]; 6.0 % w/v 2-butanol): − | Growth at 37° C. ([2]; 6.4 % w/v 2-butanol): − | Growth at 37° C. ([2]; 7.3 % w/v 2-butanol): − | concentration in which growth was observed ([2]; 25° C.): 5.2% | concentration in which growth was not observed ([2]; 30° C.): 4.9% | concentration in which growth was observed ([2]; 30° C.): 4.7% | concentration in which growth was not observed ([2]; 37° C.): 4.5% | concentration in which growth was observed ([2]; 37° C.): 4.3% | Growth at 30° C. ([2]; […] w/v 2-butanol): +
